Results taken from the NIST ThermoML archive (doi:10.1021/acs.jced.8b00132).
Values joined by “and” are separate entries in the source; they are usually repeats but may differ in a detail not shown here. Equal entries are not always repeated.

O=C(C(F)(F)C(F)(F)F)C(F)(C(F)(F)F)C(F)(F)F [dodecafluoro-2-methylpentan-3-one]
Details | thermal conductivity
272.59 K, 5172 kPa, Liquid, transient hot wire | 0.06413 W/m/K
272.59 K, 11144 kPa, Liquid, transient hot wire | 0.06607 W/m/K
272.63 K, 49567 kPa, Liquid, transient hot wire | 0.07698 W/m/K
272.63 K, 49576 kPa, Liquid, transient hot wire | 0.07734 W/m/K
272.66 K, 412 kPa, Liquid, transient hot wire | 0.06211 W/m/K
272.66 K, 419 kPa, Liquid, transient hot wire | 0.06231 W/m/K
272.66 K, 59545 kPa, Liquid, transient hot wire | 0.08002 W/m/K
272.67 K, 59542 kPa, Liquid, transient hot wire | 0.0797 W/m/K
272.71 K, 68218 kPa, Liquid, transient hot wire | 0.08167 W/m/K
272.71 K, 68236 kPa, Liquid, transient hot wire | 0.08151 W/m/K
273.05 K, 32241 kPa, Liquid, transient hot wire | 0.07208 W/m/K
273.05 K, 32245 kPa, Liquid, transient hot wire | 0.0724 W/m/K
273.05 K, 40384 kPa, Liquid, transient hot wire | 0.07454 W/m/K
273.05 K, 40385 kPa, Liquid, transient hot wire | 0.07459 W/m/K
273.05 K, 46114 kPa, Liquid, transient hot wire | 0.07568 W/m/K
273.06 K, 24365 kPa, Liquid, transient hot wire | 0.07006 W/m/K
273.06 K, 24371 kPa, Liquid, transient hot wire | 0.0701 W/m/K
273.07 K, 5155 kPa, Liquid, transient hot wire | 0.06386 W/m/K
273.07 K, 46114 kPa, Liquid, transient hot wire | 0.07563 W/m/K
273.08 K, 5150 kPa, Liquid, transient hot wire | 0.06384 W/m/K
273.1 K, 49569 kPa, Liquid, transient hot wire | 0.07538 W/m/K
273.1 K, 49574 kPa, Liquid, transient hot wire | 0.07648 W/m/K
273.11 K, 59541 kPa, Liquid, transient hot wire | 0.07959 W/m/K
273.12 K, 59533 kPa, Liquid, transient hot wire | 0.07966 W/m/K
273.14 K, 68200 kPa, Liquid, transient hot wire | 0.0807 W/m/K
273.15 K, 404 kPa, Liquid, transient hot wire | 0.06203 W/m/K
273.15 K, 68218 kPa, Liquid, transient hot wire | 0.08063 W/m/K
273.16 K, 411 kPa, Liquid, transient hot wire | 0.06212 W/m/K
273.17 K, 17550 kPa, Liquid, transient hot wire | 0.06792 W/m/K
273.17 K, 17567 kPa, Liquid, transient hot wire | 0.06791 W/m/K
273.18 K, 11149 kPa, Liquid, transient hot wire | 0.066 W/m/K
273.18 K, 11163 kPa, Liquid, transient hot wire | 0.06608 W/m/K
273.61 K, 5151 kPa, Liquid, transient hot wire | 0.06408 W/m/K
273.61 K, 5162 kPa, Liquid, transient hot wire | 0.06401 W/m/K
273.61 K, 59517 kPa, Liquid, transient hot wire | 0.0783 W/m/K
273.62 K, 49564 kPa, Liquid, transient hot wire | 0.07642 W/m/K
273.62 K, 49566 kPa, Liquid, transient hot wire | 0.07674 W/m/K
273.62 K, 59531 kPa, Liquid, transient hot wire | 0.07779 W/m/K
273.65 K, 40387 kPa, Liquid, transient hot wire | 0.07442 W/m/K
273.65 K, 40395 kPa, Liquid, transient hot wire | 0.07429 W/m/K
273.65 K, 46116 kPa, Liquid, transient hot wire | 0.0758 W/m/K
273.65 K, 68183 kPa, Liquid, transient hot wire | 0.08044 W/m/K
273.65 K, 68193 kPa, Liquid, transient hot wire | 0.08038 W/m/K
273.66 K, 46113 kPa, Liquid, transient hot wire | 0.07572 W/m/K
273.67 K, 32245 kPa, Liquid, transient hot wire | 0.07209 W/m/K
273.67 K, 32247 kPa, Liquid, transient hot wire | 0.07216 W/m/K
273.7 K, 424 kPa, Liquid, transient hot wire | 0.0621 W/m/K
273.7 K, 24366 kPa, Liquid, transient hot wire | 0.07016 W/m/K
273.7 K, 24370 kPa, Liquid, transient hot wire | 0.07021 W/m/K
273.71 K, 432 kPa, Liquid, transient hot wire | 0.06209 W/m/K
273.81 K, 17553 kPa, Liquid, transient hot wire | 0.06799 W/m/K
273.82 K, 17545 kPa, Liquid, transient hot wire | 0.06795 W/m/K
273.85 K, 11147 kPa, Liquid, transient hot wire | 0.06585 W/m/K
273.86 K, 11155 kPa, Liquid, transient hot wire | 0.06592 W/m/K
274.19 K, 59501 kPa, Liquid, transient hot wire | 0.07896 W/m/K
274.2 K, 59504 kPa, Liquid, transient hot wire | 0.07856 W/m/K
274.21 K, 49565 kPa, Liquid, transient hot wire | 0.07644 W/m/K
274.21 K, 49570 kPa, Liquid, transient hot wire | 0.07662 W/m/K
274.22 K, 68163 kPa, Liquid, transient hot wire | 0.08055 W/m/K
274.22 K, 68173 kPa, Liquid, transient hot wire | 0.08038 W/m/K
274.29 K, 46110 kPa, Liquid, transient hot wire | 0.07571 W/m/K
274.3 K, 46107 kPa, Liquid, transient hot wire | 0.07575 W/m/K
274.31 K, 40378 kPa, Liquid, transient hot wire | 0.07418 W/m/K
274.31 K, 40391 kPa, Liquid, transient hot wire | 0.07426 W/m/K
274.35 K, 32242 kPa, Liquid, transient hot wire | 0.0723 W/m/K
274.35 K, 32249 kPa, Liquid, transient hot wire | 0.0721 W/m/K
274.39 K, 24361 kPa, Liquid, transient hot wire | 0.07 W/m/K
274.4 K, 24354 kPa, Liquid, transient hot wire | 0.06999 W/m/K
274.53 K, 17544 kPa, Liquid, transient hot wire | 0.068 W/m/K
274.54 K, 17533 kPa, Liquid, transient hot wire | 0.06799 W/m/K
274.59 K, 11155 kPa, Liquid, transient hot wire | 0.06582 W/m/K
274.6 K, 11134 kPa, Liquid, transient hot wire | 0.06585 W/m/K
274.82 K, 59491 kPa, Liquid, transient hot wire | 0.07869 W/m/K
274.82 K, 59496 kPa, Liquid, transient hot wire | 0.07855 W/m/K
274.83 K, 68150 kPa, Liquid, transient hot wire | 0.0803 W/m/K
274.83 K, 68153 kPa, Liquid, transient hot wire | 0.08033 W/m/K
274.86 K, 49566 kPa, Liquid, transient hot wire | 0.0765 W/m/K
274.86 K, 49571 kPa, Liquid, transient hot wire | 0.07653 W/m/K
300.59 K, 40 kPa, Gas, hot wire | 0.01173 W/m/K
300.6 K, 35 kPa, Gas, hot wire | 0.01177 W/m/K
300.6 K, 40 kPa, Gas, hot wire | 0.01173 W/m/K
300.61 K, 35 kPa, Gas, hot wire | 0.01163 W/m/K
300.62 K, 27 kPa, Gas, hot wire | 0.01161 W/m/K and 0.01166 W/m/K
300.8 K, 40 kPa, Gas, hot wire | 0.01173 W/m/K and 0.01174 W/m/K
